Laboratory results published in article PMC9558907, “Synthesis and pharmacological evaluation of newly detected synthetic cannabinoid receptor agonists AB-4CN-BUTICA, MMB-4CN-BUTINACA, MDMB-4F-BUTICA, MDMB-4F-BUTINACA and their analogs” (Frontiers in Psychiatry, 2022).

Key:
[1] = molecular target: T1, human CB1 (Homo sapiens, UniProt P21554); test: fluorescence-based membrane potential assay (GIRK activation) in AtT20 cells; assay type: cell-based; parameters: expressed in transfected cells; host or cells: mouse AtT20 FlpIn cells; settings: for hCB1 Emax ±SEM: normalised to 1 μM CP55,940; for hCB1 maximal response at 10 μM (footnote d): highest concentration tested, curve not fitted
[2] = molecular target: T2, human CB2 (Homo sapiens, UniProt P34972); test: as above; assay type: cell-based; parameters: expressed in transfected cells; host or cells: mouse AtT20 FlpIn cells; settings: for hCB2 Emax ±SEM: normalised to 1 μM CP55,940
[3] = molecular target: T1, human CB1; test: competitive radioligand binding assay, displacement of [3H]CP55,940, HEK cell membranes; parameters: expressed in transfected cells; host or cells: HEK293 cells, P2 membrane preparation; settings: [3H]CP55,940 1 nM
[4] = molecular target: T2, human CB2; test: as above; parameters: expressed in transfected cells; host or cells: HEK293 cells, P2 membrane preparation; settings: [3H]CP55,940 1 nM
[5] = hCB1 EC50, AtT20-hCB1, value in brackets after pEC50
[6] = hCB2 EC50, AtT20-hCB2, value in brackets after pEC50
[7] = hCB1 Ki, value in brackets after pKi
[8] = hCB2 Ki, value in brackets after pKi
[9] = hCB1 pEC50 ±SEM, AtT20-hCB1, DNC = did not converge, ND = < 50% change in fluorescence at 10 μM
[10] = hCB2 pKi ±SEM, mean ± SEM of 3 to 6 independent experiments
[11] = AtT20-hCB1, DNC = did not converge, ND = < 50% change in fluorescence at 10 μM
[12] = hCB1 pKi ±SEM, mean ± SEM of 3 to 6 independent experiments

T1 sequence (P21554 whole entry): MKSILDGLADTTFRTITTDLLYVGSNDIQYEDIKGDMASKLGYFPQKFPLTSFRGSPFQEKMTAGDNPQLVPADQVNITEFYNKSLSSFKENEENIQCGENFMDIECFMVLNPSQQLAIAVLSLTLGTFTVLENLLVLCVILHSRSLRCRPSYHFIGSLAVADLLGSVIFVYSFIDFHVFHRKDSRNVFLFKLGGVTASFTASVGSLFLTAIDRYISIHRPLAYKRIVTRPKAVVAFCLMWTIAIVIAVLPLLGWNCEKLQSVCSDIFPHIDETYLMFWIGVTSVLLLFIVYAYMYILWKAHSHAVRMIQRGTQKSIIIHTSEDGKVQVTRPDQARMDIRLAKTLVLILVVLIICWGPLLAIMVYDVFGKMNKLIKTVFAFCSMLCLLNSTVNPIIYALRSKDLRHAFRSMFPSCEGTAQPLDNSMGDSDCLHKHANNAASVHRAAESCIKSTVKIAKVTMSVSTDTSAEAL
T2 sequence (P34972 whole entry): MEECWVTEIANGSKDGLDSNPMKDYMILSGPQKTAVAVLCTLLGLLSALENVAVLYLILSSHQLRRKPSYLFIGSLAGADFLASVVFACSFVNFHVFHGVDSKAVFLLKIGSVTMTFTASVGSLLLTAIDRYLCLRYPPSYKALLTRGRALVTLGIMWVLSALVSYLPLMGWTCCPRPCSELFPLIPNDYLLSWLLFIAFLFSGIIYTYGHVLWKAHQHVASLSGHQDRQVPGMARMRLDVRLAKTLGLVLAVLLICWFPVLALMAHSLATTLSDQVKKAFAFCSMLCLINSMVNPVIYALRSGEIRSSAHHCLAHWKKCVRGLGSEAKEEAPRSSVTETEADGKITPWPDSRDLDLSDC

Structure (SMILES)	melting point	hCB1 Emax ±SEM ([1]; AtT20-hCB1)	EC50 [1, 5]	hCB2 Emax ±SEM ([2]; AtT20-hCB2)	EC50 [2, 6]	Ki [3, 7]	Ki [4, 8]	EC50 [1, 9]	Ki [4, 10]	hCB1 maximal response at 10 μM (footnote d) ([1]; AtT20-hCB1)	hCB1 maximal response at 10 μM (footnote d) ([1]; AtT20-hCB1, listed as APP-4CN-BUTICA (10))	hCB1 pEC50 ±SEM [1, 11]	hCB1 maximal response at 10 μM (footnote d) ([1]; AtT20-hCB1, listed as APP-4CN-BUTINACA (13))	Ki [3, 12]	hCB1 maximal response at 10 μM (footnote d) ([1]; AtT20-hCB1, listed as APP-4CN-BUT7AICA (16))	hCB2 Emax ±SEM ([2]; AtT20-hCB2, listed as APP-4CN-BUT7AICA (16))	EC50 ([2]; hCB2 pEC50 ±SEM, AtT20-hCB2)
CC(C)[C@H](NC(=O)c1cn(CCCCC#N)c2ccccc12)C(N)=O [Compound 5, (S)-N-(1-amino-3-methyl-1-oxobutan-2-yl)-1-(4-cyanobutyl)-1H-indole-3-carboxamide]	177 to 180 °C	111 ± 5 % CP55,940	400 nM	100 ± 2 % CP55,940	75.9 nM	550 nM	603 nM										
COC(=O)[C@@H](NC(=O)c1nn(CCCCC#N)c2ccccc12)C(C)C [Compound 6, methyl (1-(4-cyanobutyl)-1H-indazole-3-carbonyl)-L-valinate]		117 ± 6 % CP55,940	3.61 nM	101 ± 4 % CP55,940	2.14 nM	17.4 nM	6.46 nM										
COC(=O)[C@@H](NC(=O)c1cn(CCCCF)c2ccccc12)C(C)(C)C [Compound 7, methyl (S)-2-(1-(4-fluorobutyl)-1H-indole-3-carboxamido)-3,3-dimethylbutanoate]		114 ± 3 % CP55,940	3.43 nM	110 ± 3 % CP55,940	2.87 nM	13.2 nM		3.39 nM									
COC(=O)[C@@H](NC(=O)c1nn(CCCCF)c2ccccc12)C(C)(C)C [Compound 8, methyl (S)-2-(1-(4-fluorobutyl)-1H-indazole-3-carboxamido)-3,3-dimethylbutanoate]		106 ± 3 % CP55,940		103 ± 5 % CP55,940	3.28 nM	6.2 nM	0.1 nM	0.407 nM	0.12 nM								
CC(C)(C)[C@H](NC(=O)c1cn(CCCCC#N)c2ccccc12)C(N)=O [Compound 9, (S)-N-(1-amino-3,3-dimethyl-1-oxobutan-2-yl)-1-(4-cyanobutyl)-1H-indole-3-carboxamide]	101 to 103 °C	115 ± 5 % CP55,940	10.2 nM	106 ± 6 % CP55,940	10.4 nM	6.8 nM	5.5 nM										
N#CCCCCn1cc(C(=O)N[C@@H](Cc2ccccc2)C(N)=O)c2ccccc21 [Compound 10, (S)-N-(1-amino-1-oxo-3-phenylpropan-2-yl)-1-(4-cyanobutyl)-1H-indole-3-carboxamide]	84 to 85 °C			95 ± 3 % CP55,940	98.4 nM	3310 nM	776 nM			submaximal agonist activity	85 ± 3^d % CP55,940	DNC^b					
CC(C)[C@H](NC(=O)c1nn(CCCCC#N)c2ccccc12)C(N)=O [Compound 11, (S)-N-(1-amino-3-methyl-1-oxobutan-2-yl)-1-(4-cyanobutyl)-1H-indazole-3-carboxamide]		111 ± 5 % CP55,940	26.3 nM	103 ± 1 % CP55,940	4.97 nM	43.7 nM	24 nM										
CC(C)(C)[C@H](NC(=O)c1nn(CCCCC#N)c2ccccc12)C(N)=O [Compound 12, (S)-N-(1-amino-3,3-dimethyl-1-oxobutan-2-yl)-1-(4-cyanobutyl)-1H-indazole-3-carboxamide]	82 to 86 °C	109 ± 2 % CP55,940		96 ± 2 % CP55,940	1.76 nM	8.13 nM	2.57 nM	0.331 nM									
N#CCCCCn1nc(C(=O)N[C@@H](Cc2ccccc2)C(N)=O)c2ccccc21 [Compound 13, (S)-N-(1-amino-1-oxo-3-phenylpropan-2-yl)-1-(4-cyanobutyl)-1H-indazole-3-carboxamide]				107 ± 11 % CP55,940	74.1 nM	1100 nM	170 nM		166 nM	104 % CP55,940		DNC^b	104 ± 3^d % CP55,940	1070 nM			
CC(C)[C@H](NC(=O)c1cn(CCCCC#N)c2ncccc12)C(N)=O [Compound 14, (S)-N-(1-amino-3-methyl-1-oxobutan-2-yl)-1-(4-cyanobutyl)-1H-pyrrolo[2,3-b]pyridine-3-carboxamide]	181 to 182 °C			87 ± 5 % CP55,940	390 nM	2570 nM	3240 nM			80 ± 3^d % CP55,940		DNC^b					
CC(C)(C)[C@H](NC(=O)c1cn(CCCCC#N)c2ncccc12)C(N)=O [Compound 15, (S)-N-(1-amino-3,3-dimethyl-1-oxobutan-2-yl)-1-(4-cyanobutyl)-1H-pyrrolo[2,3-b]pyridine-3-carboxamide]	93 to 94 °C	102 ± 4 % CP55,940	14 nM	96 ± 1 % CP55,940	6.09 nM	155 nM	145 nM										
N#CCCCCn1cc(C(=O)N[C@@H](Cc2ccccc2)C(N)=O)c2cccnc21 [Compound 16, (S)-N-(1-amino-1-oxo-3-phenylpropan-2-yl)-1-(4-cyanobutyl)-1H-pyrrolo[2,3-b]pyridine-3-carboxamide]	182 to 184 °C				232 nM		1860 nM			submaximal agonist activity				> 10000 nM	25 ± 3^d % CP55,940	72 ± 3 % CP55,940	229 nM
COC(=O)[C@@H](NC(=O)c1cn(CCCCC#N)c2ccccc12)C(C)C [Compound 17, methyl (1-(4-cyanobutyl)-1H-indole-3-carbonyl)-L-valinate]		105 ± 3 % CP55,940	50.8 nM	95 ± 3 % CP55,940	13.5 nM	159 nM	85.1 nM										
COC(=O)[C@@H](NC(=O)c1nn(CCCCC#N)c2ccccc12)C(C)(C)C [Compound 20, methyl (S)-2-(1-(4-cyanobutyl)-1H-indazole-3-carboxamido)-3,3-dimethylbutanoate]		113 ± 2 % CP55,940	0.72 nM	101 ± 2 % CP55,940	3.56 nM	1.29 nM	0.295 nM										
COC(=O)[C@@H](NC(=O)c1cn(CCCCC#N)c2ncccc12)C(C)C [Compound 22, methyl (1-(4-cyanobutyl)-1H-pyrrolo[2,3-b]pyridine-3-carbonyl)-L-valinate]		114 ± 7 % CP55,940	430 nM	95 ± 4 % CP55,940	68.3 nM	1510 nM	316 nM										
COC(=O)[C@@H](NC(=O)c1cn(CCCCC#N)c2ncccc12)C(C)(C)C [Compound 23, methyl (S)-2-(1-(4-cyanobutyl)-1H-pyrrolo[2,3-b]pyridine-3-carboxamido)-3,3-dimethylbutanoate]		114 ± 5 % CP55,940	10.3 nM	106± 5 % CP55,940	12.6 nM	9.2 nM	2.4 nM		2.45 nM					9.33 nM			
CC(C)[C@H](NC(=O)c1cn(CCCCF)c2ncccc12)C(N)=O [Compound 31, (S)-N-(1-amino-3-methyl-1-oxobutan-2-yl)-1-(4-fluorobutyl)-1H-pyrrolo[2,3-b]pyridine-3-carboxamide]				98 ± 4 % CP55,940	137 nM		1400 nM		1380 nM	82 ± 4^d % CP55,940		DNC^b		> 10000 nM			
COC(=O)[C@@H](NC(=O)c1nn(CCCCF)c2ccccc12)C(C)C [Compound 36, methyl (1-(4-fluorobutyl)-1H-indazole-3-carbonyl)-L-valinate]		103 ± 2 % CP55,940	3.93 nM	100 ± 2 % CP55,940	3.76 nM		1.6 nM		1.55 nM					31.6 nM			
COC(=O)[C@H](Cc1ccccc1)NC(=O)c1nn(CCCCF)c2ccccc12 [Compound 37, methyl (1-(4-fluorobutyl)-1H-indazole-3-carbonyl)-L-phenylalaninate]		106 ± 3 % CP55,940	5.62 nM	101 ± 3 % CP55,940	4.65 nM		0.5 nM		0.457 nM					33.9 nM			
